# Patent US20210300909A1, “IMMUNOMODULATORS, COMPOSITIONS AND METHODS THEREOF” (BETTA PHARMACEUTICALS CO., LTD, priority 2018, published 2021)
# Target: T1, PD-1/PD-L1 protein/protein interaction (Homo sapiens, UniProt Q9NZQ7)
# T1 construct: Recombinant human PD-L1 protein (19-238) with a His-tag at the C-terminus; purchased AcroBiosystems PD1-H5229 (PD-L1); PD1-H5257 (PD-1)
# Experiment: PD-1/PD-L1 homogenous time-resolved fluorescence (HTRF) binding assay
# Details: not given
# Description: Resolved Fluorescence (HTRF) Binding Assay
# The assays were conducted in a standard black 384-well polystyrene plate with a final volume of 20 μL. Inhibitors were first serially diluted in DMSO and then added to the plate wells before the addition of other reaction components. The final concentration of DMSO in the assay was 1%. The assays were carried out at 25° C. in the PBS buffer (pH 7.4) with 0.05% Tween-20 and 0.1% BSA. […] Plates were centrifuged and proteins were preincubated with inhibitors for 40 min. The incubation was followed by the addition of 10 μL of HTRF detection buffer supplemented with Europium cryptate-labeled anti-human IgG (PerkinElmer-AD0212) specific for Fc and anti-His antibody conjugated to SureLight®-Allophycocyanin (APC, PerkinElmer-AD0059H). After centrifugation, the plate was incubated at 25° C. for 60 min. […] Final concentrations in the assay were […], 10 nM PD-L1, nM europium anti-human IgG and 20 nM anti-His-Allophycocyanin. IC50 determination was performed by fitting the curve of percent control activity versus the log of the inhibitor concentration using the GraphPad Prism 5.0 software.
# T1 sequence (Q9NZQ7 19-238): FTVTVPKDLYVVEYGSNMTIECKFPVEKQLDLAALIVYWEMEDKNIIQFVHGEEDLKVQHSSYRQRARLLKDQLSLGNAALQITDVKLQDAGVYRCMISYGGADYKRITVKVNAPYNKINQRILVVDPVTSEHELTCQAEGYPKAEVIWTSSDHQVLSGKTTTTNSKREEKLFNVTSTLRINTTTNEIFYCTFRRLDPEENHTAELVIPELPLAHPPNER
row,SMILES,IC50 [nM]
1,"COc1cc2oc(-c3cccc(-c4cccc(CCCN5CCOCC5)c4)c3C)nc2cc1CN1CCCCC1C(=O)O (stereo not drawn) [Compound 4, 1-((6-methoxy-2-(2-methyl-3′-(3-morpholinopropyl)-[1,1′-biphenyl]-3-yl)benzo[d]oxazol-5-yl)methyl)piperidine-2-carboxylic acid]",< 25
2,"Cc1c(OCCCN2CCOCC2)cccc1-c1cccc(-c2nc3cc(CN(C)CC(=O)O)c(N(C)C)cc3o2)c1C [Compound 37, N-((2-(2,2′-dimethyl-3′-(3-morpholinopropoxy)-[1,1′-biphenyl]-3-yl)-6-(dimethylamino)benzo[d]oxazol-5-yl)methyl)-N-methylglycine]",< 25
3,"COc1cc2oc(-c3cccc(-c4cccc(OCCCN5CCOCC5)c4C#N)c3C)nc2cc1CN1CCOCC1C(=O)O (stereo not drawn) [Compound 18, 4-((2-(2′-cyano-2-methyl-3′-(3-morpholinopropoxy)-[1,1′-biphenyl]-3-yl)-6-methoxybenzo[d]oxazol-5-yl)methyl)morpholine-3-carboxylic acid]",< 25
4,"COc1cc2oc(-c3cccc(-c4cccc(OCCCN5CCOCC5)c4)c3C)nc2cc1CNC(C)(CO)C(=O)O (stereo not drawn) [Compound 21, 3-hydroxy-2-(((6-methoxy-2-(2-methyl-3′-(3-morpholinopropoxy)-[1,1′-biphenyl]-3-yl)benzo[d]oxazol-5-yl)methyl)amino)-2-methylpropanoic acid]",< 25
5,"COc1cc2oc(-c3cccc(-c4cccc(CCCCN5CCOCC5)c4)c3C)nc2cc1CN1CCCCC1C(=O)O (stereo not drawn) [Compound 10, 1-((6-methoxy-2-(2-methyl-3′-(4-morpholinobutyl)-[1,1′-biphenyl]-3-yl)benzo[d]oxazol-5-yl)methyl)piperidine-2-carboxylic acid]",25 to 150
6,"COc1cc2oc(-c3cccc(-c4cccc(NC(=O)CCN5CCOCC5)c4)c3C)nc2cc1CN1CCOCC1C(=O)O (stereo not drawn) [Compound 17, 4-((6-methoxy-2-(2-methyl-3′-(3-morpholinopropanamido)-[1,1′-biphenyl]-3-yl)benzo[d]oxazol-5-yl)methyl)morpholine-3-carboxylic acid]",< 25

# Further lines, results first:
row,IC50 [nM],SMILES
1,< 25,"COc1cc2nc(-c3cccc(-c4cccc(OCCCN5CCOCC5)c4)c3C)sc2cc1CN1CCCCC1C(=O)O (stereo not drawn) [Compound 35, 1-((5-methoxy-2-(2-methyl-3′-(3-morpholinopropoxy)-[1,1′-biphenyl]-3-yl)benzo[d]thiazol-6-yl)methyl)piperidine-2-carboxylic acid]"
2,< 25,"COc1cc2oc(-c3cccc(-c4cccc(NC(=O)CCN5CCOCC5)c4C)c3C)nc2cc1CN1CCCCC1C(=O)O (stereo not drawn) [Compound 8, 1-((2-(2,2′-dimethyl-3′-(3-morpholinopropanamido)-[1,1′-biphenyl]-3-yl)-6-methoxybenzo[d]oxazol-5-yl)methyl)piperidine-2-carboxylic acid]"
3,< 25,"COc1cc2oc(-c3cccc(-c4cccc(OCCCN5CCOCC5)c4F)c3C)nc2cc1CN1CCCCC1C(=O)O (stereo not drawn) [Compound 9, 1-((2-(2′-fluoro-2-methyl-3′-(3-morpholinopropoxy)-[1,1′-biphenyl]-3-yl)-6-methoxybenzo[d]oxazol-5-yl)methyl)piperidine-2-carboxylic acid]"
4,< 25,"COc1cc2oc(-c3cccc(-c4cccc(OCCCN5CCOCC5)c4)c3C)nc2cc1CN1CCCC1C(=O)O (stereo not drawn) [Compound 20, ((6-methoxy-2-(2-methyl-3′-(3-morpholinopropoxy)-[1,1′-biphenyl]-3-yl)benzo[d]oxazol-5-yl)methyl)proline]"
5,1,"COc1cc2oc(-c3cccc(-c4cccc(OCCCN5CCOCC5)c4C)c3C)nc2cc1CN1CCCCC1C(=O)O (stereo not drawn) [Compound 3, 1-((2-(2,2′-dimethyl-3′-(3-morpholinopropoxy)-[1,1′-biphenyl]-3-yl)-6-methoxybenzo[d]oxazol-5-yl)methyl)piperidine-2-carboxylic acid]"

# Same assay, conditions: HTRF, recombinant human PD-1 (Fc tag) / PD-L1 (His-tag), 25° C., PBS pH 7.4; class symbols; read-out: IC50
row,IC50 [nM],SMILES
1,25 to 150,"COc1cc2oc(-c3cccc(-c4cccc(OCCCN5CCOCC5)c4)c3C)nc2cc1CN(C)CC(=O)O [Compound 19, N-((6-methoxy-2-(2-methyl-3′-(3-morpholinopropoxy)-[1,1′-biphenyl]-3-yl)benzo[d]oxazol-5-yl)methyl)-N-methylglycine]"
